A short description of one series: in vitro. The settings on record: human.
The test system of the next series is HL-60. Kind of series: HL-60 differentiation potency. Format: cell-based. To be noted: Homo sapiens.

Each structure is given as a SMILES string. A value given as a limit tells only on which side of the number the result lay.

As a reminder, the IC50 is the concentration that gives 50% inhibition. The low end stands for greater potency, the high end for weaker potency. As a reminder, the EC50 is the concentration that produces a half-maximal response. A lower EC50 goes with a more potent agent.

In the case of `C[C@H]1[C@@H](OCc2ccc(C(=O)N[C@H]3C[C@@H](C(=O)O)C3)cc2)O[C@@H]2O[C@@]3(C)CC[C@H]4[C@H](C)CC[C@@H]1[C@@]24OO3` [Compound 278, (1R,3s)-3-(4-((((3R,5aS,6R,8aS, 9R,10S,12R, 12aR)-3,6,9-trimethyldeca-hydro-12H-3,12-epoxy[1,2]dioxepino[4,3-i]isochromen-10-yl)oxy)methyl)benzamido) cyclobutane-1-carboxylic acid], in “in vitro”, the IC50 is > 20 µM. Also, the EC50 in the series with HL-60 turned out to be 0.354 µM.

Turning to `C[C@H]1[C@@H](Oc2ccc([C@@H](C)C(=O)O)cc2F)O[C@@H]2O[C@@]3(C)CC[C@H]4[C@H](C)CC[C@@H]1[C@@]24OO3` [Compound 279, (R)-2-(3-fluoro-4-(((3R,5aS,6R,8aS, 9R,10S,12R, 12aR)-3,6,9-trimethyldeca-hydro-12H-3,12-epoxy[1,2]dioxepino[4,3-i]isochromen-10-yl)oxy)phenyl) propanoic acid], the IC50 in the series “in vitro” is 4.86 µM. In the series on HL-60, the EC50 came to 0.0268 µM.

`Cc1cc(C(=O)O)cc(Cl)c1CO[C@H]1O[C@@H]2O[C@@]3(C)CC[C@H]4[C@H](C)CC[C@@H]([C@H]1C)[C@@]24OO3` [Compound 280, 3-chloro-5-methyl-4-((((3R,5aS,6R,8aS, 9R,10S,12R, 12aR)-3,6,9-trimethyldeca-hydro-12H-3,12-epoxy[1,2]dioxepino[4,3-i]isochromen-10-yl)oxy)methyl) benzoic acid] returned an IC50 in the series “in vitro” of 3.22 µM. The EC50 in the series with HL-60 is 0.246 µM.

In the case of `C[C@H]1[C@@H](OCc2ccc(C(=O)N[C@H](C(=O)O)C(C)(C)C)cc2)O[C@@H]2O[C@@]3(C)CC[C@H]4[C@H](C)CC[C@@H]1[C@@]24OO3` [Compound 281, (S)-3,3-dimethyl-2-(4-((((3R,5aS,6R,8aS, 9R,10S,12R, 12aR)-3,6,9-trimethyldeca-hydro-12H-3,12-epoxy[1,2]dioxepino[4,3-i]isochromen-10-yl)oxy)methyl)benzamido) butanoic acid], half-maximal inhibition in the series “in vitro” (IC50) was put at 0.43 µM. For the same compound, in the series on HL-60, a half-maximal effect (EC50) was put at 0.112 µM.

Take `C[C@H]1[C@@H](Oc2ccc([C@H](C)C(=O)O)cc2F)O[C@@H]2O[C@@]3(C)CC[C@H]4[C@H](C)CC[C@@H]1[C@@]24OO3` [Compound 282, (S)-2-(3-fluoro-4-(((3R,5aS,6R,8aS, 9R,10S,12R, 12aR)-3,6,9-trimethyldeca-hydro-12H-3,12-epoxy[1,2]dioxepino[4,3-i]isochromen-10-yl)oxy)phenyl) propanoic acid]: the IC50 in “in vitro” was 4.82 µM. In the series with HL-60, this compound registered an EC50 of 0.0127 µM.

With `C[C@H]1[C@@H](Oc2ccc(C3(C(=O)O)COC3)cc2)O[C@@H]2O[C@@]3(C)CC[C@H]4[C@H](C)CC[C@@H]1[C@@]24OO3` [Compound 283, 3-(4-(((3R,5aS,6R,8aS, 9R,10S,12R, 12aR)-3,6,9-trimethyldeca-hydro-12H-3,12-epoxy[1,2]dioxepino[4,3-i]isochromen-10-yl)oxy)phenyl) oxetane-3-carboxylic acid], the IC50 in “in vitro” is > 20 µM. Besides, in the series with HL-60, the EC50 stood at 0.0403 µM.

`C[C@H]1[C@@H](OCc2ccc(C(=O)NC(C)(C)C(=O)O)cc2)O[C@@H]2O[C@@]3(C)CC[C@H]4[C@H](C)CC[C@@H]1[C@@]24OO3` [Compound 284, 2-methyl-2-(4-((((3R,5aS,6R,8aS, 9R,10S,12R, 12aR)-3,6,9-trimethyldeca-hydro-12H-3,12-epoxy[1,2]dioxepino[4,3-i]isochromen-10-yl)oxy)methyl)benzamido) propanoic acid]: the IC50 in the series “in vitro” is > 20 µM. Also, the EC50 with HL-60 is 0.524 µM.

The compound `C[C@H]1[C@@H](OCc2ccc(C(=O)NCC3(C(=O)O)CCC3)cc2)O[C@@H]2O[C@@]3(C)CC[C@H]4[C@H](C)CC[C@@H]1[C@@]24OO3` [Compound 286, 1-((4-((((3R,5aS,6R,8aS, 9R,10S,12R, 12aR)-3,6,9-trimethyldeca-hydro-12H-3,12-epoxy[1,2]dioxepino[4,3-i]isochromen-10-yl)oxy)methyl)benzamido)methyl) cyclobutane-1-carboxylic acid] displayed an IC50 in “in vitro” of 1.53 µM. A half-maximal response in the series with HL-60 (EC50) required 0.018 µM.

In turn, `C[C@H]1[C@@H](OC[C@H]2CC[C@@H](C(=O)Nc3ccc(C(=O)O)cc3)CC2)O[C@@H]2O[C@@]3(C)CC[C@H]4[C@H](C)CC[C@@H]1[C@@]24OO3` [Compound 287, 4-((1R,4s)-4-((((3R,5aS,6R,8aS, 9R,10S,12R, 12aR)-3,6,9-trimethyldeca-hydro-12H-3,12-epoxy[1,2]dioxepino[4,3-i]isochromen-10-yl)oxy)methyl)cyclohexane-1-carboxamido) benzoic acid] yielded an IC50 in “in vitro” of 1 µM. Besides, the EC50 in the series on HL-60 was found to be 0.0608 µM.

In the case of `C[C@H]1[C@@H](OCc2ccc(C(=O)N[C@@H]3C[C@H](C(=O)O)C[C@H]3O)cc2)O[C@@H]2O[C@@]3(C)CC[C@H]4[C@H](C)CC[C@@H]1[C@@]24OO3` [Compound 288, (1S,3R,4R)-3-hydroxy-4-(4-((((3R,5aS,6R,8aS, 9R,10S,12R, 12aR)-3,6,9-trimethyldeca-hydro-12H-3,12-epoxy[1,2]dioxepino[4,3-i]isochromen-10-yl)oxy)methyl)benzamido) cyclopentane-1-carboxylic acid], in the series “in vitro”, the IC50 is > 20 µM. This compound also returned an EC50 in the series on HL-60 of 5.58 µM.

Turning to `C[C@H]1[C@@H](Oc2ccc(CC(=O)N[C@@H]3CC[C@H](C(=O)O)C3)cc2)O[C@@H]2O[C@@]3(C)CC[C@H]4[C@H](C)CC[C@@H]1[C@@]24OO3` [Compound 289, (1S,3R)-3-(2-(4-(((3R,5aS,6R,8aS, 9R,10S,12R, 12aR)-3,6,9-trimethyldeca-hydro-12H-3,12-epoxy[1,2]dioxepino[4,3-i]isochromen-10-yl)oxy)phenyl)acetamido) cyclopentane-1-carboxylic acid], the IC50 in “in vitro” was > 20 µM. The compound also came in with an EC50 in the series on HL-60 of 0.0276 µM.

Turning to `C[C@H]1[C@@H](OCc2ccc(C(=O)N[C@@H]3CCC[C@@H](C(=O)O)C3)cc2)O[C@@H]2O[C@@]3(C)CC[C@H]4[C@H](C)CC[C@@H]1[C@@]24OO3` [Compound 290, (1R,3R)-3-(4-((((3R,5aS,6R,8aS, 9R,10S,12R, 12aR)-3,6,9-trimethyldeca-hydro-12H-3,12-epoxy[1,2]dioxepino[4,3-i]isochromen-10-yl)oxy)methyl)benzamido) cyclohexane-1-carboxylic acid], in the series “in vitro”, the IC50 was found to be 11.3 µM. For the same compound, the EC50 with HL-60 amounted to 0.0834 µM.

For `C[C@H]1[C@@H](OCc2ccc(C(=O)NC3CC4(C3)CC(C(=O)O)C4)cc2)O[C@@H]2O[C@@]3(C)CC[C@H]4[C@H](C)CC[C@@H]1[C@@]24OO3` (stereo partly drawn) [Compound 291, 6-(4-((((3R,5aS,6R,8aS, 9R,10S,12R, 12aR)-3,6,9-trimethyldeca-hydro-12H-3,12-epoxy[1,2]dioxepino[4,3-i]isochromen-10-yl)oxy)methyl)benzamido)spiro [3.3]heptane-2-carboxylic acid], the IC50 in “in vitro” turned out to be 13.4 µM. This compound also gave an EC50 with HL-60 of 0.0478 µM.

As for `C[C@H]1[C@@H](Oc2ccc(CC(=O)N[C@H]3C[C@@H](C(=O)O)C3)cc2)O[C@@H]2O[C@@]3(C)CC[C@H]4[C@H](C)CC[C@@H]1[C@@]24OO3` [Compound 292, (1R,3s)-3-(2-(4-(((3R,5aS,6R,8aS, 9R,10S,12R, 12aR)-3,6,9-trimethyldeca-hydro-12H-3,12-epoxy[1,2]dioxepino[4,3-i]isochromen-10-yl)oxy)phenyl)acetamido) cyclobutane-1-carboxylic acid], in the series “in vitro” (HL-60 cells), the IC50 is > 20 µM. Further, it took 0.0429 µM to reach a half-maximal effect in the series on HL-60 (EC50).

(Values after patent US20260242391A1 (priority 2023, published 2026).)
